Entries after “also recorded” stand apart in the source; their conditions may differ.
How the values were obtained:
[1] = system: C57BL/6J female mice; assay: Survival after whole body irradiation; format: in vivo, mouse; conditions: for Number of mice surviving: 11 Gy, 7 days, 2 dose daily, cohort of 3
[2] = system: C57BL/6J female mice; assay: Survival following acetaminophen (Tylenol) overdose; format: in vivo, mouse;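 also: control animals received vehicle only, given on a once or twice daily schedule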
[3] = system: 15-PGDH-luciferase fusion reporter in V9m, LS174T and V503 cells; assay: 15-PGDH-luciferase fusion gene reporter induction in colon cancer cell lines; format: cell-based
[4] = system: A549 cells; assay: Cellular toxicity on A549 cells by CellTiter-Glo; format: cell-based; conditions: 24 hours, concentrations of up to 10 μM
Procedure: FIGS. 38(A-C) show assays of cellular toxicity on A549 cells at 24 hours of 15-PGDH inhibitors as assayed by CellTiter-Glo measurement.

[5] = system: C57BL/6J mice; assay: Liver regeneration after partial hepatectomy, C57BL/6J mice; format: in vivo, mouse
[6] = Hepatocyte stability; format: in vitro ADME; conditions: hepatocytes in culture; printed 'Stable > couple hrs' over two lines
Procedure: Time to inhibition refers to the time needed to inhibit the generation of NADH by 15-PGDH from the moment with drug is added into the reaction mix. Delta Tm refers to the shift in melting temperature of recombinant 15-PGDH in the presence of drug (with cofactor NADH also present). Concentration of Full Cell Line Reporter Induction refers to the concentration of drug that needs to be added to reporter cell line to achieve maximal induction of the 15-PGDH-luciferase gene fusion reporter cassette, as measured by luciferase assays. Hepatocyte stability refers to the half-life of compound in the presence of hepatocytes in culture. Toxicity refers to the concentration of compound needed to decrease cell numbers in a cell culture assay.

[7] = system: lethally irradiated mice; assay: Blood and bone marrow recovery after transplant with 500,000 donor marrow cells; format: in vivo, mouse

SMILES: CCCC[S+]([O-])c1sc2nc(-c3cccs3)cc(-c3ccccc3)c2c1N (stereo not drawn) [SW033291, 2-(butylsulfinyl)-4-phenyl-6-(thiophen-2-yl)thieno[2,3-b]pyridin-3-amine]
- Number of mice surviving ([1]; Day 5): 3
- Number of mice surviving ([1]; Day 6): 3
- Number of mice surviving ([1]; Day 7): 3
- Number of mice surviving ([1]; Day 8): 3
- Number of mice surviving ([1]; Day 9): 2
- Number of mice surviving ([1]; Day 10): 0
- longer survival than vehicle control, on average ([1]; 11Gy, any of three 5 mg/kg dosing schedules): 1 to 2 days
- Number of mice surviving ([2]; 5 mg/kg 1 dose/daily, first dose immediately after Tylenol, 16 hr, cohort of 6): 6
- Number of mice surviving ([2]; 5 mg/kg 1 dose/daily, first dose immediately after Tylenol, 24 hrs, cohort of 6): 6
- Number of mice surviving ([2]; 5 mg/kg 2 dose/daily, first dose immediately after Tylenol, 16 hr, cohort of 6): 6
- Number of mice surviving ([2]; 5 mg/kg 2 dose/daily, first dose immediately after Tylenol, 24 hrs, cohort of 6): 6
- Number of mice surviving ([2]; 5 mg/kg 2 dose/daily, first dose immediately after Tylenol, 48 hrs, cohort of 6): 3
- Number of mice surviving ([2]; 5 mg/kg 2 dose/daily, first dose immediately after Tylenol, 64 hrs, cohort of 6): 3
- Number of mice surviving ([2]; 5 mg/kg 2 dose/daily, first dose immediately after Tylenol, 72 hrs, cohort of 6): 3
- Number of mice surviving ([2]; 5 mg/kg 2 dose/daily, first dose immediately after Tylenol, 88 hr, cohort of 6): 3
- Number of mice surviving ([2]; 5 mg/kg 2 dose/daily, first dose immediately after Tylenol, 96 hr, cohort of 6): 3
- Number of mice surviving ([2]; 5 mg/kg 2 dose/daily, first dose immediately after Tylenol, 112 hr, cohort of 6): 3
- Number of mice surviving ([2]; 5 mg/kg 2 dose/daily, first dose immediately after Tylenol, 120 hr, cohort of 6): 3
- survival versus control mice ([2]; 5 mg/kg IP begun immediately following acetaminophen, once or twice daily, through 120 hours): No difference
- protection from acetaminophen lethality ([2]; 5 mg/kg IP bid beginning 48 hours prior to acetaminophen, 9 doses): protects from the lethal hepatotoxicity of acetaminophen
- Number of mice surviving ([2]; 5 mg/kg bid from 3 hours prior to acetaminophen, 6 doses, 16 hr, cohort of 6): 6
- Number of mice surviving ([2]; 5 mg/kg bid from 3 hours prior to acetaminophen, 6 doses, 24 hrs, cohort of 6): 5
- Number of mice surviving ([2]; 5 mg/kg bid from 3 hours prior to acetaminophen, 6 doses, 48 hrs, cohort of 6): 3
- Number of mice surviving ([2]; 5 mg/kg bid from 3 hours prior to acetaminophen, 6 doses, 64 hrs, cohort of 6): 3
- Number of mice surviving ([2]; 5 mg/kg bid from 3 hours prior to acetaminophen, 6 doses, 72 hrs, cohort of 6): 3
- Number of mice surviving ([2]; 5 mg/kg bid from 3 hours prior to acetaminophen, 6 doses, 88 hr, cohort of 6): 3
- Number of mice surviving ([2]; 5 mg/kg bid from 3 hours prior to acetaminophen, 6 doses, 96 hr, cohort of 6): 3
- Number of mice surviving ([2]; 5 mg/kg bid from 3 hours prior to acetaminophen, 6 doses, 112 hr, cohort of 6): 3
- Number of mice surviving ([2]; 5 mg/kg bid from 3 hours prior to acetaminophen, 6 doses, 120 hr, cohort of 6): 3
- Number of mice surviving ([2]; 5 mg/kg bid from 48 hours prior to acetaminophen, 9 doses, 16 hr, cohort of 12): 12
- Number of mice surviving ([2]; 5 mg/kg bid from 48 hours prior to acetaminophen, 9 doses, 24 hrs, cohort of 12): 12
- Number of mice surviving ([2]; 5 mg/kg bid from 48 hours prior to acetaminophen, 9 doses, 40 hrs, cohort of 12): 11
- Number of mice surviving ([2]; 5 mg/kg bid from 48 hours prior to acetaminophen, 9 doses, 48 hrs, cohort of 12): 10
- Number of mice surviving ([2]; 5 mg/kg bid from 48 hours prior to acetaminophen, 9 doses, 64 hrs, cohort of 12): 10
- Number of mice surviving ([2]; 5 mg/kg bid from 48 hours prior to acetaminophen, 9 doses, 72 hrs, cohort of 12): 10
- Number of mice surviving ([2]; 5 mg/kg bid from 48 hours prior to acetaminophen, 9 doses, 88 hr, cohort of 12): 10
- Number of mice surviving ([2]; 5 mg/kg bid from 48 hours prior to acetaminophen, 9 doses, 96 hr, cohort of 12): 10
- Number of mice surviving ([2]; 5 mg/kg bid from 48 hours prior to acetaminophen, 9 doses, 112 hr, cohort of 12): 10
- Number of mice surviving ([2]; 5 mg/kg bid from 48 hours prior to acetaminophen, 9 doses, 120 hr, cohort of 12): 10
- exposure needed for maximal reporter induction ([3]; 24 hours, three cell line backgrounds): 80 to 160 nM
- luciferase activity of 15-PGDH luciferase fusion cells ([3]; V9m, LS174T, V503, various concentrations): increase luciferase activity
- effect on CellTitre-Glo levels [4]: No effect
- mitosis per high powered field in liver ([5]; 5 mg/kg IP daily, post-operative days 3 and 4): significantly increased hepatic mitosis; also recorded: significantly increased numbers of mitotic liver cells
- serum ALT levels ([5]; one mouse each, 5 mg/kg IP bid, post-operative days 1-7): lower
- Hepatocyte stability [6]: couple hrs
- total platelet count ([7]; day 5 after transplant): significantly higher total platelet count
- total white count ([7]; day 5 after transplant): significantly higher total white count
- platelet count ([7]; day 8 after transplant): 77,000 platelets
- neutrophil count ([7]; day 12 after transplant): 332 neutrophils
- total white counts ([7]; day 12 after transplant): significantly higher total white counts; also recorded: significantly greater total white counts
- lymphocyte count ([7]; day 18 after transplant): significantly higher
- neutrophil count ([7]; day 18 after transplant): 835 neutrophils
- platelet counts ([7]; day 18 after transplant): significantly higher platelet counts
- total white count ([7]; day 18 after transplant): significantly higher total white count

Reference: patent US9789116B2, “Compositions and methods of modulating short-chain dehydrogenase activity” (CASE WESTERN RESERVE UNIVERSITY, priority 2013, dated 2017)
